Measured values taken from ChEMBL document CHEMBL1806363, “New substrate analogue furin inhibitors derived from 4-amidinobenzylamide” (Bioorg Med Chem Lett, 2011).
pKi: −log10 of the molar value.

Target: Furin (Homo sapiens, UniProt P09958)
Experiment: Inhibition of recombinant human furin expressed in CHO cells using pyroGlu- Arg-Thr-Lys-Arg-AMC as the substrate after 30 mins
Assay type: cell-based

Chain of Furin (P09958 whole entry): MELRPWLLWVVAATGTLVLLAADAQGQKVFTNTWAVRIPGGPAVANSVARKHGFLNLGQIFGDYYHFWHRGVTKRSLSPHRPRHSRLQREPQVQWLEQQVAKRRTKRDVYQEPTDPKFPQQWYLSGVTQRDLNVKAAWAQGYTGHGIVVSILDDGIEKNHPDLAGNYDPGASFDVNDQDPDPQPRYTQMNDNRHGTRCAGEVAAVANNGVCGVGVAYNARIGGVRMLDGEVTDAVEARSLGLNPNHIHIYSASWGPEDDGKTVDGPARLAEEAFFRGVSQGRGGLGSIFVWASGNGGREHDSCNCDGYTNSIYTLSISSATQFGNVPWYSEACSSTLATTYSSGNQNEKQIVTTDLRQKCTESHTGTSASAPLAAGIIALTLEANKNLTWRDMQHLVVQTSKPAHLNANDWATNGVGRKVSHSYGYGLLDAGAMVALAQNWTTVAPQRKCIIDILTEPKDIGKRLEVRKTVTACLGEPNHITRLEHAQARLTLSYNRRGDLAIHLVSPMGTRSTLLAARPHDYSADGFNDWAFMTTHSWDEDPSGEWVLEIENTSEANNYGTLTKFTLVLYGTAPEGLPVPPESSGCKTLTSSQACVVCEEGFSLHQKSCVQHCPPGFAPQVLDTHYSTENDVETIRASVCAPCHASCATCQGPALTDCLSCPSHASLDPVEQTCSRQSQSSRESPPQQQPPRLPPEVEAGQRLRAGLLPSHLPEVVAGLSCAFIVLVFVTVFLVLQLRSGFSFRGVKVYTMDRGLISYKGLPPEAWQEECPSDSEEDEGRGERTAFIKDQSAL

Row | SMILES | pKi
1 | CC(C)[C@H](NC(=O)Cc1ccccc1)C(=O)N[C@H](CCCN=C(N)N)C(=O)N[C@@H](CCCN=C(N)N)C(=O)NCc1ccc(C(=N)N)cc1 | 5.13
2 | NC(N)=NCCC[C@H](NC(=O)[C@@H](CCCN=C(N)N)NC(=O)Cc1ccccc1)C(=O)O | 5.49
3 | CC(C)[C@H](NC(=O)[C@H](CCCN=C(N)N)NC(=O)Cc1ccccc1)C(=O)N[C@@H](CCCCN)C(=O)NCc1ccc(C(=N)N)cc1 | 8.82
4 | N=C(N)c1ccc(CNC(=O)[C@H](CCCCN)NC(=O)[C@H](CN)NC(=O)[C@H](CCCN=C(N)N)NC(=O)Cc2ccccc2)cc1 | 8.43
